Test [1] deals with human ES cells. The experiment in a line: cell proliferation assay (MTS test). The test is classed as cell-based. The method, then:
Human ES cells were grown for the indicated time in 96-wells on Matrigel and a MTS test (CellTiter 96, Promega) was performed according to manufacturers′ instructions.
Human ES cells were plated out as small colonies on matrigel, mouse ES cells on gelatin. DEVD.fmk was added twice a day and half of the ES cell medium was changed daily. As a control, the same volume of DEVD.fmk solvent (DMSO) was added and no significant effect on the number of undifferentiated cells was observed. Recombinant TAT-caspase-3rev was added 4 hours after application of caspase blocker and equal volumes of TAT protein served as controls. Mouse embryos were treated once in the 50 μl microdrop with the given concentration of DEVD.fmk or post-incubation 4 hours later with recombinant TAT-caspase-3rev.
A general note: Formazan colour is commonly taken as a measure of viable cells.

The test system of test [2] is human ES cells. The test can be described thus: microarray gene expression analysis of DEVD.fmk treated cells. The test is classed as cell-based. The text has this: Since ES cells differentiate relatively uniformly from their undifferentiated state into the spindle-shaped cells, we performed a microarray analysis of the differentiated human cells treated with DEVD.fmk. […] In both zebrafish and Xenopus, dickkopf genes have been associated with the development of mesoderm and endoderm. The identity of the differentiated cell type is most likely a common precursor of mesoderm and endoderm (“mesendoderm”).

Test [3] concerns p85 fragment of PARP-1 in human ES cells. The experiment in a line: Western immunoblotting for cleaved p85 PARP-1 fragment. It counts as cell-based. The settings on record: human ES cells treated with DEVD.fmk. As for the experimental part:
Cell lysates were collected from H1 Human ES cells grown on mouse embryonic fibroblasts, D3 Mouse ES cells, Human Foreskin Fibroblasts (HF), 19 MEFs, and apoptotic MEFs induced with 25 μl/ml of 3% H2O2. Cytosolic and mitochondrial lysates were isolated using the ApoAlert Cell Fractionation Kit (Clontech, Palo Alto, Calif.) and whole-cell lysates were isolated using M-PER Mammalian Protein Extraction Reagent (Pierce, Rockford, Ill.) with 1:1000 dilution of Protease Inhibitor Cocktail (Sigma) and Pefablock SC (final concentration 0.2 μg/ml)(Sigma). Lysates were run on SDS-PAGE gels, transferred to Trans-Blot Transfer Medium (Bio-Rad, Hercules, Calif.) and peroxidase-conjugated secondary antibodies were detected using Supersignal West Pico Chemiluminscent Substrate (Pierce). Cytochrome C was detected with 1:100 dilution of Cytochrome C Antibody (Clontech) and 1:2000 Goat Anti-Rabbit IgG (H+L) (Caltag Laboratories, Burlingame, Calif). COX4 was detected with dilutions of 1:1000 COX4 Antibody (Clontech) and 1:1000 Anti-mouse IgG (g)-Peroxidase (Roche, Basel, Switzerland). PARP was detected with dilutions of 1:400 anti-p85 PARP (rabbit polyclonal IgG) (Promega) and 1:5000 goat Anti-Rabbit IgG (H+L) (Caltag Laboratories).
Human ES cells were plated out as small colonies on matrigel, mouse ES cells on gelatin. DEVD.fmk was added twice a day and half of the ES cell medium was changed daily. […]

Test [4] has as its system human ES cells. The test can be described thus: morphology and time of differentiation of treated ES cells. The test is classed as cell-based. The method, then:
(§1) H1 human ES cells (WiCell) were cultured as previously described and incorporated by reference herein (Amit et al., 2000). Human ES cells were cultured under feeder-free conditions on culture flasks that were pre-coated with matrigel™ (Becton Dickinson Labware, Bedford, MA), using medium conditioned overnight on dense murine embryonic fibroblasts (MEFs) (Xu et al., 2001a). D3 mouse ES cells (ATCC) were cultured under feeder-free conditions in mouse ES cell medium, consisting of 85% Knock-Out DMEM supplemented with 15% Gibco KNOCKOUT Serum Replacement, 2.5 mM glutamine, 0.1 mM beta-mercaptoethanol (Sigma), and 1000 U/l LIF (Esgro) on gelatin-coated plates. Murine and human fibroblasts and the 293T cell lines were cultivated in DMEM +10% Fetal bovine serum (FBS) and 1% non essential amino acids.
Human ES cells were plated out as small colonies on matrigel, mouse ES cells on gelatin. DEVD.fmk was added twice a day and half of the ES cell medium was changed daily. As a control, the same volume of DEVD.fmk solvent (DMSO) was added and no significant effect on the number of undifferentiated cells was observed. Recombinant TAT-caspase-3rev was added 4 hours after application of caspase blocker and equal volumes of TAT protein served as controls. […]

Test [5] concerns caspase-3-like activity in ES cells. The experiment in a line: in vitro caspase-3 cell lysate assay. The settings on record: treatment with DEVD.fmk. It counts as biochemical, human and mouse. The text has this:
Activation of caspase-3 is widely considered a marker of the late stages of programmed cell death. In vivo, most of the caspase-3-like enzymatic activity is attributed to caspase-3 and -7. Applicants have therefore assayed caspase-3-like activity in undifferentiated human and mouse ES cell lines using an in vitro cell lysate assay (FIG. 1B, left). […] To further characterize the elevation of caspase-3-like activity in individual ES cells, applicants performed flow cytometry using an antibody specifically recognizing the activated form of caspase-3 (FIG. 1B, right). […] In ES cells, staining for activated caspase-3 was concentrated in the nucleus, with reduced staining in the cytosol (FIG. 1C). In intact embryos, moderate immunostaining of activated caspase-3 was present in all cells of the compacted morula, and in the ICM, but was largely absent in the trophectoderm (FIG. 1D).

Test [6] deals with human ES cells. The experiment in a line: Oct4 staining (flow cytometry / immunocytochemistry) of differentiation. It counts as cell-based. As for the experimental part: as §1
Cells were treated with trypsin/EDTA and washed with PBS (both reagents are available through Invitrogen Corp.) Dead cells were excluded from analysis by forward- and side-scatter gating. Eighteen samples were analyzed using a FACScan (Becton Dickinson) flow cytometer and Cellquest software (Becton Dickinson). A minimum of 50,000 events were acquired for each sample. For Oct4 expression studies cells were stained for Oct4 using monoclonal Oct4 antibody (1 μl/10^6 cells, available through Santa Cruz). Cells were analyzed by flow cytometry analysis in a fluorescence activated cell sorter. […]

The test system of a further test is mouse embryos. The test can be described thus: embryo culture outgrowth experiments. The settings on record: treated embryos n=34. The text has this: (§2) Three to nine-week-old female B6C3F1 mice (Charles Rivers) were superovulated with a single 10 IU intraperitoneal injection of Pregnant Mare's Serum Gonadotrophin (Gestyl, Diosynth B.V.—OSS). Forty-eight hours later, ovulation was triggered with a single 10 IU intraperitoneal injection of human Chorionic Gonadotrophin (hCG, Novarel/Ferring) and the female mice were mated with male BDF1 mice (Charles Rivers) of proven fertility. Two-cell stage embryos were flushed from the oviducts of the female mice 38 to 40 hours after the hCG injection using modified-Human Tubal Fluid medium (m-HTF, Irvine Scientific) supplemented with 0.5 mg/mL polyvinyl alcohol (PVA, Sigma). The resulting embryos were washed and cultured in the same medium. Groups of 10-15 embryos were cultured at 37° C. with 5% CO2/95% air in 50 μL drops of m-HTF medium covered with mineral oil (Ovoil, Vitrolife). In the outgrowth experiments, the zona pellucida was digested with pronase and embryos were plated out on gelatin in ES cell derivation medium with 1000 U/mL LIF.
(§3) Human ES cells were plated out as small colonies on matrigel, mouse ES cells on gelatin. DEVD.fmk was added twice a day and half of the ES cell medium was changed daily. As a control, the same volume of DEVD.fmk solvent (DMSO) was added and no significant effect on the number of undifferentiated cells was observed. […]

Test [7] concerns PARP-1 activity in human ES cells. The experiment in a line: in vitro PARP activity assay. The test is classed as cell-based. The settings on record: human ES cells treated with DEVD.fmk; p<0.01. The method, then: (§4) Apoptotic cells were detected using the Annexin-V binding kit (ApoAlert, Clontech) or the TUNEL assay kit (DeadEnd, Promega). PARP activity was determined according to a protocol published by Bakondi and others (Bakondi et al., 2002). In order to detect activated caspase-3 or cleaved p85 PARP-1, cells were fixed in CytoFix (BD), permeablized in CytoPerm, and incubated at 1 μg/ml of anti-active caspase-3 antibody (Cellsignalling) or with 1 μg/ml anti-p85 PARP-1 (Promega) overnight at 4° C. The cells were then washed with CytoPern and incubated with secondary anti-rabbit FITC conjugated antibodies (1:200 dilution) for 60 minutes at room temperature. Mouse embryos were fixed in methanol:DMSO (4:1) (Sigma) overnight at 4° C., re-hydrated in 50% methanol, and then incubated with the primary antibodies (anti-p85 PARP-1 or anti-active caspase-3) in PBS with 2% nonfat instant skim milk and 0.5% Triton-X 100 with gentle shaking overnight at 4° C. Embryos were washed 6 times for 5 minutes at room temperature in PBS with 2% nonfat instant skim milk and 0.5% Triton-X 100 with gentle shaking and incubated in the same way with the secondary fluorescent antibody. Cells and embryos were visualized using a confocal laserscan microscope (Leica) or flow cytometry.
Human ES cells were plated out as small colonies on matrigel, mouse ES cells on gelatin. […]

In test [8] the test system is human ES cells. The test can be described thus: Annexin-V EGFP binding (programmed cell death). The test is classed as cell-based. The settings on record: p=0.0011. The method, then: as §4, with “Embryos were washed 6 times for 5 minutes at room temperature in PBS with 2% nonfat instant skim milk and 0.5% Triton-X 100 with gentle shaking and incubated in the same way with the secondary fluorescent antibody. Cells and embryos were visualized using a confocal laserscan microscope (Leica) or flow cytometry.” left out
Cells were treated with trypsin/EDTA and washed with PBS (both reagents are available through Invitrogen Corp.) Dead cells were excluded from analysis by forward- and side-scatter gating. Eighteen samples were analyzed using a FACScan (Becton Dickinson) flow cytometer and Cellquest software (Becton Dickinson). […] Cells were analyzed by flow cytometry analysis in a fluorescence activated cell sorter. […]

In the next test the test system is mouse morulas. The test can be described thus: development of pre-implantation embryos to expanded blastocysts.
Source text: as §2, §3

Where [9] appears, read: versus undifferentiated ES cells.

With “N-benzyloxycarbonyl-Asp-Glu-Val-Asp fluoromethylketone (DEVD; HELM PEPTIDE1{[O=C(OCc1ccccc1)[*:2]].D.E.V.D.[FC[*:1]]}$$$$V2.0; SMILES CC(C)[C@H](NC(=O)[C@H](CCC(=O)O)NC(=O)[C@H](CC(=O)O)NC(=O)OCc1ccccc1)C(=O)N[C@@H](CC(=O)O)C(=O)CF) [DEVD.fmk]”, the “decrease in proliferation of human ES cells” value in the test with human ES cells [1] (after 3 days) is “no longer observed”. In addition, the “proliferation of human ES cells” value in the test with human ES cells [1] (first 48 hours after application) was “small decrease in proliferation”. Moreover, the “up-regulation of DKK4” value with human ES cells [2] (microarray, FIG. 7) was “over 170 fold”. In the test on human ES cells [2] (setting [9]), the “upregulation of BMP4” value came out at 45 X, the “upregulation of DKK4” value was 137 X, the “upregulation of GATA-3” value worked out at 9 X and the “upregulation of WNT3” value worked out at 3 X. Besides, in the test with human ES cells [2] (setting [9]), the “upregulation of WNT5A” value is 5 X and the “upregulation of brachyury variant A” value is given as 73 X. The “p85 PARP-1 fragment in Western blot analysis” value in test [3] is listed as “disappearance”. Besides, in the test with human ES cells [4] (human ES cells incubated with caspase inhibitor), the “time to differentiate into morphologically uniform mesendoderm cells” value is on record as 2-3 days. In addition, the cell morphology entry with human ES cells [4] (human ES cells treated with DEVD.fmk) is “differentiated to a spindle shape cell with a much smaller nuclear-cytoplasmic ratio”. For the same substance, the caspase-3-like activity result in test [5] was “reduced this activity”. Moreover, the “induction of differentiation as measured by Oct4 staining” value in the test with human ES cells [6] (human ES cells, p<0.01) is on record as “dose dependent induction of differentiation”. In addition, the “Oct4 staining by immunocytochemistry” value in the test with human ES cells [6] (spindle-shaped cells after DEVD.fmk, data not shown) is “failed to stain for Oct4”. In addition, in the test on mouse embryos, the “outgrowth: rind and core structures of extraembryonic endoderm overlying epiblast” value is “always failed to produce prominent rind and core structures”. For the same substance, the PARP-1 activity result in test [7] was “upregulated”. Also, in the test with human ES cells [8], the “rate of programmed cell death as measured by Annexin-V EGFP staining” value is “dose-dependent reduction”. In addition, the “development to expanded blastocysts” value with mouse morulas (200 μM DEVD.fmk) is listed as “completely inhibiting development to expanded blastocysts”. For the same substance, the development of blastocysts entry with mouse morulas (added to E2.0, E2.5, E3.0 mouse morulas, dose-dependent) is “inhibited the development of blastocysts”.

Values taken from patent US8012751B2, “Differentiation of pluripotent embryonic stem cells” (Wisconsin Alumni Research Foundation, priority 2005, dated 2011).
